From ChEMBL document CHEMBL1201862, “PubChem BioAssay data set” (2004)
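Test compounds were applied to cells in 96-well plates for 48 hours at 5 doses. GI50: concentration for 50% inhibition of growth.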 Activity calls are given as the source filed them. Rule as the data show it: active = GI50 up to about 1.1 µM and inactive = higher.

Columns and labels:
Experiment in all cases: NCI anticancer screen, dose series, 48 h
SNB-75 = test system: SNB-75
MOLT-4 = test system: MOLT-4
SNB-78 = test system: SNB-78
HOP-62 = test system: HOP-62
EKVX = test system: EKVX
SF-295 = test system: SF-295
SK-MEL-28 = test system: SK-MEL-28
M14 = test system: M14
SF-268 = test system: SF-268
HCC 2998 = test system: HCC 2998
OVCAR-4 = test system: OVCAR-4
OVCAR-3 = test system: OVCAR-3
LXFL 529 = test system: LXFL 529
DMS-114 = test system: DMS-114
NCI-H522 = test system: NCI-H522
UACC-62 = test system: UACC-62
RPMI-8226 = test system: RPMI-8226
OVCAR-8 = test system: OVCAR-8
DMS-273 = test system: DMS-273
OVCAR-5 = test system: OVCAR-5
KM-20L2 = test system: KM-20L2
HCT-15 = test system: HCT-15
LOX IMVI = test system: LOX IMVI
RXF 393 = test system: RXF 393
HCT-116 = test system: HCT-116
SN12C = test system: SN12C
U-251 = test system: U-251
TK-10 = test system: TK-10
ACHN = test system: ACHN
Malme-3M = test system: Malme-3M
NCI-H23 = test system: NCI-H23
NCI-H226 = test system: NCI-H226
SNB-19 = test system: SNB-19
SK-OV-3 = test system: SK-OV-3
NCI-H460 = test system: NCI-H460
RXF 631 = test system: RXF 631
CAKI-1 = test system: CAKI-1
UACC-257 = test system: UACC-257
SW-620 = test system: SW-620
HT-29 = test system: HT-29
M19-MEL = test system: M19-MEL
COLO 205 = test system: COLO 205
HOP-92 = test system: HOP-92
SK-MEL-2 = test system: SK-MEL-2
K562 = test system: K562
SF-539 = test system: SF-539
786-0 = test system: 786-0
IGROV-1 = test system: IGROV-1
UO-31 = test system: UO-31
KM12 = test system: KM12
SK-MEL-5 = test system: SK-MEL-5
DLD-1 = test system: DLD-1
HL-60 = test system: HL-60
A549 = test system: A549
HOP-18 = test system: HOP-18
A498 = test system: A498
CCRF-CEM = test system: CCRF-CEM
XF498 = test system: XF498
SR = test system: SR

CCOC(=O)C(=O)Nc1cc(Cl)c(Cl)cc1Cl
GI50 (SNB-75): > 100 µM (inactive) | GI50 (MOLT-4): > 100 µM (inactive) | GI50 (SNB-78): > 100 µM (inactive) | GI50 (HOP-62): > 100 µM (inactive) | GI50 (EKVX): > 100 µM (inactive) | GI50 (SF-295): > 100 µM (inactive) | GI50 (SK-MEL-28): > 100 µM (inactive) | GI50 (M14): > 100 µM (inactive) | GI50 (SF-268): > 100 µM (inactive) | GI50 (HCC 2998): > 100 µM (inactive) | GI50 (OVCAR-4): > 100 µM (inactive) | GI50 (OVCAR-3): > 100 µM (inactive) | GI50 (LXFL 529): > 100 µM (inactive) | GI50 (DMS-114): > 100 µM (inactive) | GI50 (NCI-H522): > 100 µM (inactive) | GI50 (UACC-62): > 100 µM (inactive) | GI50 (RPMI-8226): > 100 µM (inactive) | GI50 (OVCAR-8): > 100 µM (inactive) | GI50 (DMS-273): > 100 µM (inactive) | GI50 (OVCAR-5): > 100 µM (inactive) | GI50 (KM-20L2): > 100 µM (inactive) | GI50 (HCT-15): > 100 µM | GI50 (LOX IMVI): > 100 µM (inactive) | GI50 (RXF 393): > 100 µM (inactive) | GI50 (HCT-116): > 100 µM (inactive) | GI50 (SN12C): > 100 µM (inactive) | GI50 (U-251): > 100 µM (inactive) | GI50 (TK-10): > 100 µM (inactive) | GI50 (ACHN): > 100 µM (inactive) | GI50 (Malme-3M): > 100 µM (inactive) | GI50 (NCI-H23): > 100 µM (inactive) | GI50 (NCI-H226): > 100 µM (inactive) | GI50 (SNB-19): > 100 µM (inactive) | GI50 (SK-OV-3): > 100 µM (inactive) | GI50 (NCI-H460): > 100 µM (inactive) | GI50 (RXF 631): > 100 µM (inactive) | GI50 (CAKI-1): > 100 µM (inactive) | GI50 (UACC-257): > 100 µM (inactive) | GI50 (SW-620): > 100 µM (inactive) | GI50 (HT-29): > 100 µM (inactive) | GI50 (M19-MEL): > 100 µM (inactive) | GI50 (COLO 205): > 100 µM (inactive) | GI50 (HOP-92): > 100 µM (inactive) | GI50 (SK-MEL-2): > 100 µM (inactive) | GI50 (K562): > 100 µM (inactive) | GI50 (SF-539): > 100 µM (inactive) | GI50 (786-0): > 100 µM (inactive) | GI50 (IGROV-1): > 100 µM (inactive) | GI50 (UO-31): > 100 µM (inactive) | GI50 (KM12): > 100 µM (inactive) | GI50 (SK-MEL-5): > 100 µM (inactive)

CCCCCCCCCCCCCC(=O)OC1CC(=O)OC1CO (stereo not given)
GI50 (SNB-75): 79.6 µM (inactive) | GI50 (MOLT-4): 25.1 µM (inactive) | GI50 (SNB-78): 37.8 µM (inactive) | GI50 (HOP-62): > 100 µM (inactive) | GI50 (EKVX): > 100 µM (inactive) | GI50 (SF-295): 21.5 µM (inactive) | GI50 (M14): 19.3 µM (inactive) | GI50 (SF-268): 64 µM (inactive) | GI50 (HCC 2998): 60.3 µM (inactive) | GI50 (OVCAR-4): > 100 µM (inactive) | GI50 (OVCAR-3): 33.6 µM (inactive) | GI50 (LXFL 529): 89.3 µM (inactive) | GI50 (DMS-114): 35.7 µM (inactive) | GI50 (UACC-62): 19.2 µM (inactive) | GI50 (DLD-1): 34.4 µM (inactive) | GI50 (RPMI-8226): 36.5 µM (inactive) | GI50 (OVCAR-8): > 100 µM (inactive) | GI50 (DMS-273): > 100 µM (inactive) | GI50 (OVCAR-5): > 100 µM (inactive) | GI50 (KM-20L2): 50.7 µM (inactive) | GI50 (HL-60): 23 µM (inactive) | GI50 (HCT-15): 18.5 µM | GI50 (LOX IMVI): 28.2 µM (inactive) | GI50 (RXF 393): > 100 µM (inactive) | GI50 (HCT-116): 27.4 µM (inactive) | GI50 (SN12C): > 100 µM (inactive) | GI50 (A549): 55.1 µM (inactive) | GI50 (HOP-18): 21.6 µM (inactive) | GI50 (U-251): 53.6 µM (inactive) | GI50 (TK-10): > 100 µM (inactive) | GI50 (ACHN): 46 µM (inactive) | GI50 (Malme-3M): > 100 µM (inactive) | GI50 (SNB-19): 32.8 µM (inactive) | GI50 (SK-OV-3): > 100 µM (inactive) | GI50 (A498): 77.6 µM (inactive) | GI50 (CCRF-CEM): 25.5 µM (inactive) | GI50 (NCI-H460): 34.2 µM (inactive) | GI50 (CAKI-1): 81.1 µM (inactive) | GI50 (XF498): 65.3 µM (inactive) | GI50 (UACC-257): > 100 µM (inactive) | GI50 (SW-620): 71.6 µM (inactive) | GI50 (HT-29): 32.1 µM (inactive) | GI50 (M19-MEL): > 100 µM (inactive) | GI50 (COLO 205): > 100 µM (inactive) | GI50 (HOP-92): 17 µM (inactive) | GI50 (SK-MEL-2): > 100 µM (inactive) | GI50 (K562): 21.9 µM (inactive) | GI50 (SF-539): > 100 µM (inactive) | GI50 (786-0): > 100 µM (inactive) | GI50 (IGROV-1): 41 µM (inactive) | GI50 (UO-31): 32.8 µM (inactive) | GI50 (KM12): 22.9 µM (inactive) | GI50 (SK-MEL-5): 91.8 µM (inactive)

CCc1cc(Cc2cc(CC)c(NC(=O)C(=O)Cc3ccccn3)c(CC)c2Cl)c(Cl)c(CC)c1NC(=O)C(=O)Cc1ccccn1
GI50 (SNB-75): > 100 µM (inactive) | GI50 (MOLT-4): > 100 µM (inactive) | GI50 (SNB-78): > 100 µM (inactive) | GI50 (HOP-62): > 100 µM (inactive) | GI50 (EKVX): > 100 µM (inactive) | GI50 (SF-295): > 100 µM (inactive) | GI50 (SK-MEL-28): > 100 µM (inactive) | GI50 (M14): 75.2 µM (inactive) | GI50 (SF-268): > 100 µM (inactive) | GI50 (HCC 2998): > 100 µM (inactive) | GI50 (OVCAR-4): > 100 µM (inactive) | GI50 (OVCAR-3): > 100 µM (inactive) | GI50 (LXFL 529): 53 µM (inactive) | GI50 (DMS-114): 96.8 µM (inactive) | GI50 (UACC-62): > 100 µM (inactive) | GI50 (SR): > 100 µM (inactive) | GI50 (DLD-1): > 100 µM (inactive) | GI50 (RPMI-8226): > 100 µM (inactive) | GI50 (OVCAR-8): > 100 µM (inactive) | GI50 (DMS-273): > 100 µM (inactive) | GI50 (OVCAR-5): > 100 µM (inactive) | GI50 (KM-20L2): > 100 µM (inactive) | GI50 (HL-60): > 100 µM (inactive) | GI50 (HCT-15): 39.4 µM | GI50 (LOX IMVI): 41.8 µM (inactive) | GI50 (HCT-116): > 100 µM (inactive) | GI50 (SN12C): > 100 µM (inactive) | GI50 (A549): > 100 µM (inactive) | GI50 (HOP-18): > 100 µM (inactive) | GI50 (U-251): 19.4 µM (inactive) | GI50 (TK-10): > 100 µM (inactive) | GI50 (ACHN): > 100 µM (inactive) | GI50 (Malme-3M): > 100 µM (inactive) | GI50 (NCI-H23): > 100 µM (inactive) | GI50 (NCI-H226): > 100 µM (inactive) | GI50 (SNB-19): > 100 µM (inactive) | GI50 (SK-OV-3): > 100 µM (inactive) | GI50 (A498): > 100 µM (inactive) | GI50 (CCRF-CEM): > 100 µM (inactive) | GI50 (NCI-H460): > 100 µM (inactive) | GI50 (CAKI-1): > 100 µM (inactive) | GI50 (XF498): > 100 µM (inactive) | GI50 (UACC-257): 40.4 µM (inactive) | GI50 (SW-620): 15.7 µM (inactive) | GI50 (HT-29): 70 µM (inactive) | GI50 (M19-MEL): > 100 µM (inactive) | GI50 (COLO 205): 64 µM (inactive) | GI50 (HOP-92): > 100 µM (inactive) | GI50 (SK-MEL-2): > 100 µM (inactive) | GI50 (K562): > 100 µM (inactive) | GI50 (SF-539): > 100 µM (inactive) | GI50 (786-0): > 100 µM (inactive) | GI50 (IGROV-1): > 100 µM (inactive) | GI50 (UO-31): > 100 µM (inactive) | GI50 (KM12): 78.3 µM (inactive) | GI50 (SK-MEL-5): > 100 µM (inactive)
